Assay results from patent US10137185B2, “PAP peptide analogues” (THE NOTTINGHAM TRENT UNIVERSITY, priority 2014, dated 2018).

What was measured:
splenocytes [1] = assay: Peptide immunisation of HHDII/DRI mice, ex vivo IFNγ ELISPOT of splenocytes; type: in vivo
Experimental: FIG. 11. Comparison of IFNγ responses generated by splenocytes isolated from HHDII/DRI mice that have been immunised with PAP-114-128 peptide and PAP-114-128 analogue peptide, as determined using an ex vivo ELISPOT. HHDII/DRI mice were immunised with 100 μg of PAP-114-128 on day 1 and 75 μg of PAP-115-123 on day 14, or 100 μg of PAP-114-128 analogue peptide on day 1 and 75 μg of PAP-115-123 on day 14. Splenocytes were isolated for the ex vivo ELISPOT assay a week after the final immunisation. For the assay, 1×10^6 splenocytes were co-cultured with 1 μg of class I PAP-115-123 peptide or PAP-115-123 analogue peptide or 10 μg of class II PAP-114-128 peptide or PAP-114-128 analogue peptide. Splenocytes with no added peptide were used as control. Comparisons of means (±SEM) between groups (splenocytes pulsed with class I/class II peptide or class I/class II analogue peptide) are made using an unpaired t test. The experiment was performed with three mice per group.
The immunogenic efficiencies of the PAP-115-123 epitope peptide and the PAP-115-123 analogue peptides were further compared using transgenic HHDII/DRI mice. For this, HHDII/DRI mice in the PAP-114-128 peptide immunisation group were immunised with 100 μg of PAP-114-128 on day 1 and 75 μg of PAP-115-123 on day 14. HHDII/DRI mice in the PAP-114-128 analogue peptide immunisation group was immunised with 100 μg of PAP-114-128 analogue peptide on day 1 and 75 μg of PAP-115-123 on day 14. A week after the final immunisation spleens were isolated for the ex vivo ELISPOT assay. For the assay, 1×10^6 splenocytes were co-cultured with 1 μg of class I PAP-115-123 peptide or PAP-115-123 analogue peptide or 10 μg of class II PAP-114-128 peptide or PAP-114-128 analogue peptide. Splenocytes with no added peptide were used as control. […] The experiment was performed with three mice per group.

splenocytes [2] = assay: Peptide immunisation of C57Bl/6 mice, ex vivo IFNγ ELISPOT of splenocytes; type: in vivo; details: for number of spots generated by splenocytes from immunised animals: 100 μg 15-mer day 1, PAP-115-123 day 14, 1×10^6 splenocytes with 1 μg 9-mer peptide, 3 mice
Experimental: FIG. 9. Comparison of IFNγ responses induced by PAP-115-123 peptide and PAP-115-123 analogue peptide immunisation (A) and to varying PAP-115-123 peptide/analogue peptide concentrations (B), as determined using an ex vivo ELISPOT. C57Bl/6 mice in the PAP-115-123 peptide immunisation group were immunised with 100 μg of PAP-114-128 on day 1 and 75 μg of PAP-115-123 on day 14. C57Bl/6 mice in the PAP-115-123 analogue peptide immunisation group were immunised with 100 μg of PAP-114-128 analogue peptide on day 1 and 75 μg of PAP-115-123 on day 14. A week after the final immunisation, spleens were isolated for the ex vivo ELISPOT assay. For the assay, 1×10^6 splenocytes were co-cultured with 1 μg of PAP-115-123 peptide or PAP-115-123 analogue peptide. Splenocytes with no added peptide were used as control. Comparisons of means (±SEM) between groups (splenocytes pulsed with PAP-115-123 peptide or PAP-115-123 analogue peptide) are made with an unpaired t test. The experiment was performed with three mice per group.
The PAP-115-123 peptide which was obtained by altering the second amino acid of the sequence from alanine to […] was predicted to have a higher HLA-2 binding score by the syfpeithi database. The binding score of PAP-115-123 epitope (SAMTNLAAL) (SEQ ID NO. 13) to HLA-A2.1 was 24 and that of the analogue peptide (SLMTNLAAL) (SEQ ID NO. 8) was 30. The immunogenicity of PAP-115-123 epitope and its analogue epitope was assessed by immunising syngeneic C57Bl/6 mice with these peptides. C57Bl/6 mice were immunised with 100 μg of PAP-114-128 on day 1 and […] of PAP-115-123 on day 14 or 100 μg of PAP-114-128 analogue peptide on day 1 and […] of PAP-115-123 on day 14. A week after the final immunisation spleens were isolated for the ex vivo ELISPOT assay. For this, 1×10^6 splenocytes were co-cultured with 1 μg of PAP-115-123 peptide or PAP-115-123 analogue peptide. Splenocytes with no added peptide were used as control. A 2-fold higher IFNγ response by splenocytes from animals immunised with the PAP-114-128 analogue peptide was observed (FIG. 9A). The number of spots in generated by splenocytes from PAP-114-128 immunised animals was 280, whereas the number of spots generated by splenocytes from PAP-114-128 analogue immunised animals was 590. Comparisons of means (±SEM) between groups (splenocytes pulsed with PAP-114-128 peptide or PAP-114-128 analogue peptide) were performed using the unpaired t test, and there were 3 animals in each group. Peptide-specific IFNγ responses generated by splenocytes that had been pulsed with varying concentrations (10, 1, 0.1, 0.01, 0.001 and 0.0001 mg/ml) of PAP-15-123 epitope or analogue epitope were also evaluated.

TRAMP-C1 cells = assay: Ex vivo IFNγ ELISPOT of splenocytes of immunised mice co-cultured with TRAMP-C1 or MC38 cells; type: in vivo, C57Bl/6 mice
Experimental: FIG. 10. Comparison of IFNγ responses generated by splenocytes from mice that have been immunised with PAP-115-123 analogue peptide, and which have been co-cultured with TRAMP-C1 cells and MC38 cells, as determined using an ex vivo ELISPOT. C57Bl/6 mice were immunised with 100 μg of PAP-114-128 analogue peptide on day 1 and 75 μg of PAP-115-123 on day 14. Splenocytes were isolated for the ex vivo ELISPOT assay a week after the final immunisation. For the assay, 1×10^6 splenocytes were co-cultured with 1×10^5 TRAMP-C1 ‘stimulator’ cells. Control wells received 1×10^5 MC38 cells as stimulator cells. Comparisons of means (±SEM) between groups (splenocytes pulsed with TRAMP-C1 or MC38) are made using an unpaired t test. The experiment was performed with three mice per group.
To assess whether the T cells generated following PAP-114-128 analogue peptide immunisation could recognise naturally processed PAP-115-123 epitopes, the IFNγ response of splenocytes from the immunised mice that had been co-cultured with TRAMP-C1 cells (that naturally express PAP) was assessed using the ELISPOT. For this, 1×10^6 splenocytes were co-cultured with 1×10^5 TRAMP-C1 cells as stimulator cells. […] The number of spots generated by co-culture splenocytes with TRAMP-C1 cells was 650, whereas and number of spots obtained when using MC38 cells as stimulators was 100. The experiment was performed with three mice per group.

HLA-A2 = details: WO 2005/090560; cited from earlier work
[3] = test system: PBMCs from HLA-A2 positive patients with prostate cancer and individuals with benign disease; assay: IFNγ ELISPOT of PBMCs from prostate cancer patients and individuals with benign disease after peptide re-stimulation; type: cell-based, human; details: for peptide-specific IFNγ response in samples from individuals with benign disease: 10 benign individuals
Experimental: FIG. 3. IFNγ response of peripheral blood mononuclear cells (PBMCs) isolated from patients with prostate cancer and individuals with benign disease after re-stimulation with PAP-115-123 epitope using an ELISPOT assay. Cryopreserved PBMCs from ten HLA-A2 positive prostate cancer patients and ten benign candidates were compared. The PBMCs were cultured in vitro with 5 μg of PAP-114-128 epitope for 7 days. The cells were then washed and rested overnight and 4×10^4 cells were added to each well of an ELISPOT plate. PAP-115-123 epitope peptide (1 μg) was added per well and cells cultured for 48 hours. The plates were then washed according to the manufacturer's protocol. PBMCs with no added peptide were used as control. Comparisons of means (±SEM) between groups (cells pulsed with PAP-115-123 or no peptide) are made using an unpaired t test.
FIG. 12. IFNγ responses generated by PBMCs isolated from 10 patients with prostate cancer and 10 individuals with benign disease after re-stimulation with the PAP-115-123 analogue epitope peptide, as determined using an ELISPOT assay. PBMCs were cultured in vitro with 5 μg of PAP-114-128 analogue epitope for 7 days. The cells were then washed and rested overnight, at which time and 4×10^4 cells were added to each well of an ELISPOT plate. PAP-115-123 analogue epitope peptide (1 μg) was added to each well and the cells were cultured for 48 hours. The plates were then washed according to the manufacturer's protocol. PBMCs cultured with no added peptide were used as the control. Comparisons of means (±SEM) between groups (PBMCs pulsed with PAP-115-123 analogue or no peptide) are made using an unpaired t test.
To determine the presence of circulating T cells specific for PAP-115-123 in humans, PBMCs from HLA-A2 positive patients with prostate cancer and individuals with benign disease were used. Cryopreserved PBMCs were thawed, washed and restimulated for 7 days with […] epitope peptide. The cells were then washed and rested overnight, at which time 4×10^4 cells were added to each well of an ELISPOT plate. PAP-115-123 epitope peptide (1 μg) was added to each well and the cells cultured for 48 hours. The plates were developed according to the manufacturer's instructions. PBMCs cultured with no peptide were used as controls. […] The number of IFNγ spots generated by PBMCs from one of the patients was as high as 220 (vs 60 spots for the control). The number of spots generated by PBMCs for the other 6 patients with prostate cancer ranged between 50 and 100 (vs 10-20 in controls). Although some of the PBMCs from individuals with benign disease generated 50-100 spots, the number of spots in the control wells was also high.
To determine the presence of circulating T cells specific for PAP-115-123 analogue peptide in humans, PBMCs from HLA-A2 positive patients with prostate cancer and individuals with benign disease were used. Cryopreserved PBMCs were thawed, washed and restimulated for 7 days with […] analogue epitope. The cells were then washed and rested overnight, at which time 4×10^4 cells were added to each well of an ELISPOT plate. 1 μg of PAP-115-123 analogue epitope was added to each well and cells were cultured for 48 hours. The plates were developed as per the manufacturer's instructions. PBMCs cultured with no peptide were used as control. […] The number of IFNγ spots in one of the patients was as high as 180 spots compared to control (54 spots). Similar response was also obtained when PBMCs were co-cultured with PAP-115-123 epitope (FIG. 3). The number of spots generated by PBMCs from the 6 patients with prostate cancer patients ranged between 50 and 100 (vs 10-20 in control wells). Although some of the samples from individuals with benign disease generated 50-100 spots, the number of spots in the control wells was also high.

Question: For “MSLMTNLAALFPPEG (PAP with A-L mutation at position 3 of peptide) [PAP-114-128 analogue peptide]”, which “immune response on the basis of the IFNγ response, compared to immunisation with PAP-114-128” value (splenocytes [1]; discussion) is on record?
Answer: Its value is “significantly more potent”.

Question: And the “number of spots generated by splenocytes from immunised animals” value (splenocytes [2])?
Answer: The value was 590 spots.

Question: What about the “fold higher IFNγ response vs PAP-114-128 immunisation” value (splenocytes [2]; C57Bl/6, FIG. 9A) of the same substance?
Answer: The value was 2 fold.

Question: And the “immune response on the basis of the IFNγ response, compared to immunisation with PAP-114-128” value (splenocytes [2]; C57Bl/6 mice, discussion)?
Answer: Its value is “significantly more potent”.

Question: And the “IFNγ response of splenocytes pulsed with varying peptide concentrations vs native peptide group” value (splenocytes [2]; peptide concentrations of 1, 0.1, 0.01 and 0.001 mg/ml, p<0.05, FIG. 9B)?
Answer: The value was “significantly higher”.

Question: What about the “number of spots, MC38 cells as stimulators” value (TRAMP-C1 cells; 1×10^5 MC38 cells (do not express PAP)) of the same substance?
Answer: Its value is 100 spots.

Question: And the “number of spots, splenocytes co-cultured with TRAMP-C1 cells” value (TRAMP-C1 cells; 1×10^6 splenocytes, 1×10^5 TRAMP-C1 cells (naturally express PAP))?
Answer: The value was 650 spots.

Question: And the “lysis of TRAMP-C1 cells by T cells generated in C57Bl/6 mice” value (TRAMP-C1 cells; discussion)?
Answer: The value was “able to lyse TRAMP-C1 cells”.

Question: What about the “IFNγ response with TRAMP-C1 vs MC38 cells” value (TRAMP-C1 cells; unpaired t-test, p<0.05) of the same substance?
Answer: Its value is “Significantly higher”.

Question: For “ILLWQPIPV (PAP with Ala to Leu change at position 115) [PAP 135]”, which “binding to HLA-A2” value (HLA-A2) is on record?
Answer: Its value is “strong binding”.

Question: Which “IFNγ response of splenocytes co-cultured with class I PAP115-123 and PAP-115-123 analogue peptide epitopes” value (splenocytes [1]; 1 μg class I peptide, vs native peptide group, p<0.05) does the source give for “SLMTNLAAL (PAP with A-L mutation at position 2 of peptide) [PAP-115-123 analogue peptide, 9-mer PAP analogue with alanine changed to leucine]” here?
Answer: Its value is “significantly higher”.

Question: And the “number of spots, other 6 patients with prostate cancer” value ([3]; 1 μg peptide, 4×10^4 cells per well, 10-20 in controls)?
Answer: The value was 50-100 spots.

Question: What about the “number of spots, some PBMCs from individuals with benign disease” value ([3]; 1 μg peptide, spots in control wells also high) of the same substance?
Answer: Its value is 50-100 spots.

Question: And the “peptide-specific IFNγ response in samples from individuals with benign disease” value ([3]; 1 μg peptide, listed as PAP115-123 analogue peptide)?
Answer: The value was “not responsive”.

Question: And the “peptide-specific IFNγ response in samples from individuals with benign disease” value ([3]; 1 μg peptide, listed as PAP-115-123 analogue)?
Answer: Its value is “no PAP-115-123 analogue specific IFNγ response”.

Question: And the “responsiveness of PBMCs from patients with prostate cancer” value ([3]; discussion)?
Answer: The value was “greater”.

Question: And the “PBMC samples from patients with prostate cancer with peptide-specific IFNγ response” value ([3]; of 10 samples, 7 days re-stimulation with the 15-mer, then 1 μg peptide, 48 hours, vs no peptide)?
Answer: The value was 7.

Question: And the “number of IFNγ spots, highest patient” value ([3]; one prostate cancer patient, 1 μg peptide, 4×10^4 cells per well, 48 hours)?
Answer: Its value is 180 spots.

Question: For “PAP-114-128: immunogenic class II PAP epitope that incorporates class I PAP-115-123 (MSAMTNLAALFPPEG; UniProt P15309 114-128, looked up, fragment)”, which “IFNγ response of splenocytes co-cultured with class II epitope” value (splenocytes [1]; 10 μg class II peptide) is on record?
Answer: Its value is “No significant IFNγ response”.

Question: What about the “number of spots generated by splenocytes from immunised animals” value (splenocytes [2]) of the same substance?
Answer: Its value is 280 spots.
